Measurements from patent US11446269B2, “Methods of reducing or preventing oxidation of small dense LDL or membrane polyunsaturated fatty acids” (Amarin Pharmaceuticals Ireland Limited, priority 2014, dated 2022).

Experiments:
[1] = Glucose-induced membrane lipid peroxidation (LOOH, CHOD-iodide assay) in DLPC/cholesterol multilamellar vesicles (Example 4); format: biochemical; details: glucose 200 mg/dL
Procedure: Vitamin E (α-tocopherol) was also purchased from Sigma-Aldrich and prepared in ethanol at 1.0 mM (ε=3.06×10^4 M^−1 cm^−1 at 294 nm) just prior to experimental use. […] All test compounds were further diluted in ethanol or aqueous buffer as needed. Glucose was prepared in saline buffer (0.5 mM HEPES, 154 mM NaCl, pH 7.3) at 11.0 mM (200 mg/dL). CHOD-iodide color reagent (stock) was prepared, with slight modification, as described by from El-Saadani et al. (J. […] Samples were shell-dried under nitrogen gas and placed under vacuum for 1 h to remove residual solvent. […] Lipid suspensions were then vortexed for 3 min at ambient temperature to form MLVs. All MLV samples were subjected to time-dependent autoxidation by incubating at 37° C. in an uncovered, shaking water bath. This method allows lipid peroxidation to occur gradually without requiring the use of exogenous initiators. Small aliquots (5-100 μL) of each sample were removed, immediately following MLV preparation (0 hour) and after exposing samples to oxidative conditions for 72 or 96 hour, and combined with 1.0 mL of activated CHOD-iodide color reagent. Aliquot volume was reduced with each successive time point to ensure that spectrophotometric readings were within the optimal adsorption range. Test samples were covered and incubated in darkness at room temperature for at least 4 hr. Sample absorbances were then measured against a CHOD blank at 365 nm using a Beckman DU-640 spectrophotometer. The CHOD colorimetric assay is based on the oxidation of iodide (I^−) by lipid hydroperoxide (LOOH) to form triiodide (I3^−), the quantity of which is directly proportional to the amount of LOOH present in the lipid sample. The molar absorptivity (c) of I3^− is 2.46×10^4 M^−1 cm^−1 at 365 nm. […] The concentration of glucose selected was consistent with previous experimental studies of hyperglycemia under controlled laboratory conditions or observed in well-defined animal models of Type II diabetes following a glucose challenge. […] Values in FIG. 1 are mean±S.D. (N=6). EPA inhibited the peroxidative effects of glucose by 88% and 86% at 72 and 96 hours, respectively, which was highly significant (p<0.001) as compared to glucose treatment alone. […] Overall ANOVA—0 hour data: p=0.6655, F=0.4185; 72 hour data: p<0.0001, F=428.72; 96 hour data: p<0.0001, F=322.01.

human sdLDL [2] = experiment: Copper-induced sdLDL oxidation, TBARS (Example 7); format: biochemical; details: 1 hr; for effect on sdLDL oxidation: 10 μM, vs vehicle-treated controls
Procedure: (§1) An experiment to study the antioxidant effect of EPA in LDL and small dense […] performed. […] Fenofibrate, gemfibrozil, and niacin were purchased from Sigma-Aldrich. […] Vitamin E was also incubated with sample aliquots as a positive control.

unfractionated LDL [3] = experiment: Copper-induced oxidation of unfractionated LDL, TBARS (Example 7); format: biochemical, human; details: 10 μM, 1 hr, vs vehicle-treated controls
Procedure: as §1

[4] = X-ray diffraction of cholesterol domains in POPC/cholesterol model membranes, C/P 1.5:1 (Example 9); details: drug-to-phospholipid mole ratio 1:30, C/P 1.5:1
Procedure: Multilamellar vesicles (MLVs) were prepared as binary mixtures that include palmitoyloleoylphosphatidylcholine (POPC) (1.0 mg total phospholipid per sample) and cholesterol at an elevated cholesterol-to-phospholipid (C/P) mole ratio of 1.5:1. […] Samples were shell-dried under nitrogen gas and placed under vacuum for 3 hours to remove residual solvent at room temperature. After desiccation, each sample was resuspended in saline buffer (0.5 mM HEPES, 154 mM NaCl, pH 7.3) to yield a final phospholipid concentration of 2.5 mg/mL. Lipid suspensions were then vortexed for 3 minutes at ambient temperature to form MLVs.
Briefly, a 100 μL aliquot of each MLV preparation (containing 250 μg MLV) was transferred to a Lucite® sedimentation cell fitted with an aluminum foil substrate designed to collect MLVs into a single membrane pellet upon centrifugation. Samples were then loaded into a Sorvall AH-629 swinging bucket rotor (DuPont Corp., Wilmington, Del.) and centrifuged at 35,000 g, 5° C., for 90 minutes.
After centrifugal orientation, sample supernatants were aspirated and aluminum foil substrates, each supporting a single membrane pellet, were removed from the sedimentation cells. Sample pellets were dried for 5-10 minutes at ambient conditions, mounted onto curved glass supports, and placed in hermetically-sealed, brass or glass containers (for immediate analysis or temporary storage, respectively). All x-ray diffraction experiments were conducted at 20° C., 74% relative humidity. The latter was established by exposing membrane samples to saturated solutions of […] (K2C4H4O6.½H2O) for at least 1 hour prior to experimental analysis.
Oriented membrane samples were aligned at grazing incidence with respect to a collimated, mono-chromatic CuKα x-ray beam (Kα1 and Kα2 unresolved; λ=1.54 Å) produced by a Rigaku Rotaflex RU-200, high-brilliance microfocus generator (Rigaku-MSC, The Woodlands, Tex.) as previously described (Mason et al., Biophys. J., vol. 55(4), pages 769-778 (1989)). The samples were initially subjected to x-ray diffraction analysis at least 12 hours after formation of the membrane pellets and retested for up to several days. Analytical x-rays were generated by electron bombardment of a rotating copper anode and are filtered through a thin nickel foil to provide monochromatic radiation (λ=1.54 Å). Collimation of the x-ray beam was achieved using a single Franks mirror. […]
The d-space for any given membrane multi bilayer is a measurement of the unit cell periodicity of the membrane lipid bilayer (e.g., the distance from the center of one lipid bilayer to the next including surface hydration), and is calculated from Bragg's Law, hλ=2d sin θ, where h is the diffraction order, λ is the wavelength of the x-ray radiation (1.54 Å), d is the membrane lipid bilayer unit cell periodicity, and θ is the Bragg angle equal to one-half the angle between the incident beam and scattered beam.
The presence of cholesterol domains in a given membrane sample results in the production of distinct Bragg (diffraction) peaks having singular periodicity values of 34 and 17 Å (typically referred to as first- and second-order cholesterol domain peaks). Under the specific temperature and relative humidity conditions established for these experiments, the second-order, 17 Å cholesterol domain peak was well-delineated from other, neighboring cholesterol and phospholipid diffraction peaks and was thus used to quantitate relative cholesterol domain peak intensity. […]

sdLDL = experiment: Glucose-induced sdLDL oxidation, MDA/TBARS (Example 10); format: biochemical, human; details: glucose 200 mg/dL; for effect on glucose-induced sdLDL oxidation: 10.0 μM
Procedure: Vitamin E (α-tocopherol) purchased from Sigma-Aldrich was prepared in ethanol at 1.0 mM (ε=3.06×10^4 M^−1 cm^−1 at 294 nm) prior to experimental use. Test compounds were further diluted in ethanol or aqueous buffer as needed. Phosphate Buffered Saline (PBS) purchased from Sigma-Aldrich was prepared in double distilled water at 10 mM (138 mM NaCl, 2.7 mM KCl, pH 7.4). […] Lipid oxidation was measured by the colorimetric detection of malondialdehyde (MDA), a marker of oxidative stress.

[5] = Small angle x-ray diffraction of glucose- and peroxidation-induced cholesterol domain formation (Example 4); details: any time point (0, 72, 96 h), 1:30, glucose 200 mg/dL, vs control
Procedure: After centrifugal orientation, sample supernatants were aspirated and aluminum foil substrates, each supporting a single membrane pellet, were removed from the sedimentation cells. […] All x-ray diffraction experiments were conducted at 20° C., 74% relative humidity.
Oriented membrane samples were aligned at grazing incidence with respect to a collimated, mono-chromatic CuKα x-ray beam (Kα1 and Kα2 unresolved; λ=1.54 Å) produced by a Rigaku Rotaflex RU-200, high-brilliance microfocus generator (Rigaku-MSC, The Woodlands, Tex.) as previously described (Mason et al., Biophys. J., vol. 55(4), pages 769-778 (1989)).
Routines written in Origin 8.6 (OriginLab Corporation, Northampton, Mass.) were used to determine total peak area (associated with all diffraction peaks in a given pattern) against which the second-order cholesterol domain peak was normalized.

human sdLDL [6] = experiment: Copper-induced sdLDL oxidation, TBARS after 2 hr (Example 6); format: biochemical
Procedure: Venous blood was collected from healthy volunteers into vacutainer tubes containing sodium EDTA. Plasma was separated by centrifugation at 3000 g for 25 min at 4° C. and adjusted to a density of 1.020 g/mL with KBr. Triglyceride-rich lipoproteins (TGRL) and LDL fractions were then isolated by sequential centrifugation at 70,000 rpm at 4° C. in a Beckman LE-80 ultracentrifuge using a Beckman 50.4Ti rotor (Beckman Coulter, Inc., Fullerton, Calif.). The TGRL fraction (with a relative density of <1.020) was aspirated from the top of the centrifugate and discarded, leaving an LDL-enriched infranate (with a relative density of 1.020 to 1.063). The plasma LDL fraction was further fractionated into LDL1, LDL2, LDL3, and LDL4 (sdLDL) subfractions with relative densities of 1.020 to 1.035, 1.035 to 1.050, 1.050 to 1.063, and 1.063 to 1.075, respectively. The sdLDL subfraction was retained for additional experimentation. Plasma and lipoprotein fractions were maintained at 4° C. and protected from excessive exposure to light. Prior to oxidation experiments, EDTA was removed from the lipoprotein fraction using PD-10 desalting columns (GE Healthcare, Piscataway N.J.). After equilibration of the column with phosphate buffered saline (PBS), 2.5 mL of the lipoprotein fraction was loaded on the column and the flow-through discarded. The lipoprotein was then eluted with 3 mL of PBS. The LDL fractions were further diluted with PBS to obtain a 100 μg/mL apoB100 concentration.
LDL and sdLDL subfractions (0.6 mL each) were incubated with either 10 μL vehicle (ethanol) or 10 μL drug stock solution for 30 min to 1 hr at 37° C. Oxidation was initiated by the addition of 10 μM CuSO4. After 2 hr, 100 μL aliquots were removed from each subfraction and combined with 1.0 mL thiobarbituric acid (0.5%), 10 μL trichloroacetic acid (5%), 10 μL BHT (5 mg/mL in methanol), and 10 μL EDTA (5 mM). […]. Sample TBARS concentrations were determined spectrophotometrically by measuring sample absorbances against a standard curve derived from the hydrolysis of 1,1,3,3-tetramethoxypropane.

unfractionated LDL [7] = experiment: Copper-induced oxidation of unfractionated LDL, TBARS after 2 hr (Example 6); format: biochemical, human; details: 1.0 μM to 10.0 μM (data not shown)
Procedure: Venous blood was collected from healthy volunteers into vacutainer tubes containing sodium EDTA. […] Plasma and lipoprotein fractions were maintained at 4° C. and protected from excessive exposure to light. Prior to oxidation experiments, EDTA was removed from the lipoprotein fraction using PD-10 desalting columns (GE Healthcare, Piscataway N.J.). After equilibration of the column with phosphate buffered saline (PBS), 2.5 mL of the lipoprotein fraction was loaded on the column and the flow-through discarded. The lipoprotein was then eluted with 3 mL of PBS. The LDL fractions were further diluted with PBS to obtain a 100 μg/mL apoB100 concentration.

Structure (SMILES): CC(C)c1c(C(=O)Nc2ccccc2O)c(-c2ccccc2)c(-c2ccc(F)cc2)n1CC[C@@H](O)C[C@@H](O)CC(=O)O [ATM, Atorvastatin ortho- (o-) hydroxy (active) metabolite]
- antioxidant effect on glucose-induced LOOH formation ([1]; 1.0 μM, 96 hours): potent antioxidant effects

Structure (SMILES): Cc1ccc(C)c(OCCCC(C)(C)C(=O)O)c1 [Gemfibrozil, gemfibrozil]
- effect on sdLDL oxidation (human sdLDL [2]): no significant effect
- effect on unfractionated LDL oxidation (unfractionated LDL [3]): no significant effect
- % change Vs control (cholesterol domain peak intensity) [4]: 10.9 ± 43.3%
- effect on cholesterol domains [4]: no significant changes in cholesterol domain size
- effect on glucose-induced sdLDL oxidation (sdLDL): did not inhibit

Structure (SMILES): CC(C)c1c(C(=O)Nc2ccccc2)c(-c2ccccc2)c(-c2ccc(F)cc2)n1CC[C@@H](O)C[C@@H](O)CC(=O)O [atorvastatin]
- effect on sdLDL oxidation (human sdLDL [2]): did not have any significant antioxidant activity
- inhibition of sdLDL oxidation (TBARS formation) (human sdLDL [2]; each agent at 10 μM, vs vehicle): 0.1±7%
- effect on unfractionated LDL oxidation (unfractionated LDL [3]): did not have any significant antioxidant activity

Structure (SMILES): CC1(C)[C@@H](O[C@H]2O[C@H](C(=O)O)[C@@H](O)[C@H](O)[C@H]2O[C@@H]2O[C@H](C(=O)O)[C@@H](O)[C@H](O)[C@H]2O)CC[C@]2(C)[C@H]3C(=O)C=C4[C@@H]5C[C@@](C)(C(=O)O)CC[C@]5(C)CC[C@@]4(C)[C@]3(C)CC[C@@H]12 [Glyc, glycyrrhizin]
- reduction in cholesterol domain peaks vs vehicle [4]: 54.9%

Structure (SMILES): Cc1c(C)c2c(c(C)c1O)CC[C@@](C)(CCC[C@H](C)CCC[C@H](C)CCCC(C)C)O2 [vitamin E, α-tocopherol]
- effect on LOOH formation / lipid peroxidation ([1]; 72- and 96-hour time points, 1:30 drug-to-phospholipid mole ratio): no significant effect
- effect on cholesterol domain formation [5]: no significant effect
- effect on sdLDL oxidation (human sdLDL [6]; 1.0 μM to 10.0 μM): did not inhibit sdLDL oxidation except at the highest concentration
- reduction of TBARS levels (human sdLDL [6]; 10.0 μM, 10 μM CuSO4, vs vehicle): 26%
- effect on LDL oxidation (unfractionated LDL [7]): did not inhibit LDL oxidation at any concentration
- effect on sdLDL oxidation (human sdLDL [2]): no significant effect
- effect on unfractionated LDL oxidation (unfractionated LDL [3]): no significant effect
- effect on glucose-induced sdLDL oxidation (sdLDL): failed to inhibit sdLDL oxidation
- increase in sdLDL oxidation (sdLDL; vs glucose-treated controls): 63%
